Results as given in PMC3432122, “An Antitubulin Agent BCFMT Inhibits Proliferation of Cancer Cells and Induces Cell Death by Inhibiting Microtubule Dynamics” (PLoS ONE, 2012).

Biological target: T1, tubulin
T1 construct: purified tubulin (alpha/beta heterodimer)
Experiment: tryptophan fluorescence quenching titration; competition with BODIPY FL-vinblastine (Ki […])
Format: binding

- Kd: 8.3 ± 1.8 µM
Compound: O=C1NC(=S)S/C1=C\c1ccc(-c2ccc(Br)c(Cl)c2)o1 [BCFMT, (Z)-5-((5-(4-bromo-3-chlorophenyl)furan-2-yl)methylene)-2-thioxothiazolidin-4-one]
